Measurements reported in US5679671A, “Amino acid derivative” (Eisai Co., Ltd., priority 1993, dated 1997).

Assays:
NEP [1] = molecular target: T1, NEP (Rattus norvegicus, UniProt P07861); test: NEP inhibition activity (Experiment F-1); assay type: biochemical; design: membrane fraction prepared from rat renal cortex; from tissue; host or cells: rat renal cortex, membrane fraction (method of Booth and Kenny); settings: rat renal cortex membrane fraction
T1 sequence (P07861 1-750): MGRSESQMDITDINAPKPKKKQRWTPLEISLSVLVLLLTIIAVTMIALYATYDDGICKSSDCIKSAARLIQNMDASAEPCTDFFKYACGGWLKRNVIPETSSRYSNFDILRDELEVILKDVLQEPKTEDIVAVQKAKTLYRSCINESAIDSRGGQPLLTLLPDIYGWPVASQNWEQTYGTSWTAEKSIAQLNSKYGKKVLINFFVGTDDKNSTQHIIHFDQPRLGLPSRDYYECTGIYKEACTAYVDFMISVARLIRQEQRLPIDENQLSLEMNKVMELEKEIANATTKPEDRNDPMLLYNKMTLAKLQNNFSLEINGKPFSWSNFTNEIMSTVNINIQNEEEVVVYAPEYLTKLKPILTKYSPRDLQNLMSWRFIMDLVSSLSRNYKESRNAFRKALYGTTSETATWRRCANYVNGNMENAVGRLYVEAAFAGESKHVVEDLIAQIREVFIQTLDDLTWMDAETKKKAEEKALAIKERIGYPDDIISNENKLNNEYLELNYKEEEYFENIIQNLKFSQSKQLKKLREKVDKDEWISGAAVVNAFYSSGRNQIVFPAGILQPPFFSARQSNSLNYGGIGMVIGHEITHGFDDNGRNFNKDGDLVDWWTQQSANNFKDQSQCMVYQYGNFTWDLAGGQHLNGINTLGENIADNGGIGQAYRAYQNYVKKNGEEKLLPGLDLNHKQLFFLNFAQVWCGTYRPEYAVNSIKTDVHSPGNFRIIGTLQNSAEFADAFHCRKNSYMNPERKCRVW
Procedure: As a source of the enzyme NEP, a membrane fraction prepared from rat renal cortex in accordance with the method of Booth and Kenny (A Rapid Method for the Purification of Microvilli from Rabbit Kidney., Andrew G. Booth and A. John Kenny, Biochem. j., 1974, 142, 575-581.) was employed. The NEP activity was determined in accordance with the method of Orlowsky and Wilk (Purification and Specificity of a Membrane-Bound Metalloendpeptidase from Bovine Pituitaries., Marian Orlowsky and Shrwin Wilk, Biochemistry, 1981, 20, 4942-4950.). Now the procedure will be briefly described.
(§1) As a substrate, benzoyl-glycyl-arginyl-arginyl-2-naphthylamide (benzoyl-Gly-Arg-Arg-2-naphthylamide (Nova Biochem, Switzerland)) was used. In the presence of an NEP enzyme preparation and excessive leucine aminopeptidase (sigma chemical Co., U.S.A.), the liberated naphthylamine was made to undergo color development with first garnet (Sigma chemical Co., U.S.A.), followed by the measurement of the absorbance at a wavelength of 540 nm.
(§2) With respect to the NEP inhibition activity and the ACE inhibition activity, the inhibitor was added to the assay systems of both enzyme activities as described above in such a manner as to give the final concentrations of 1, 3, 10, 30, 100, 300 and 1000 inhibition curves were prepared, and then the concentration at which 50% inhibition was achieved was taken as IC50.

NEP [2] = molecular target: T1, NEP; test: NEP inhibition activity using rat renal cortex (Experiment A-1); assay type: biochemical; design: membrane fraction prepared from rat renal cortex; from tissue; host or cells: rat renal cortex, membrane fraction (method of Booth and Kenny); settings: rat renal cortex membrane fraction
Procedure: The NEP activity was determined by using a membrane fraction prepared from rat renal cortex in accordance with the method of Booth and Kenny (A Rapid Metod for the Purificaton of Microvilli from Rabbit Kidney., Andrew G. Booth and A. John Kenny, Biochem j., 1974, 142, […].).
The NEP activity was determined by the following manner in accordance with the method of Orlowsky and Wilk (Purification and Specificity of a Membrane-Bound Metalloendopeptidase from Bovine Pituitaries., Marian Orlowsky and Shrwin Wilk, Biochemistry, 1981, 20, 4942-4950.).
as §1
as §2, with “NEP” for “NEP inhibition activity and the ACE”, “experimental system” for “assay systems of both enzyme activities”, “1000 nM, an” for “1000”, “curve was” for “curves were”

| SMILES | IC50 (NEP [1]) [µM] | IC50 (NEP [2]) [µM] |
| --- | --- | --- |
| O=C(N[C@H]1Cc2ccccc2[C@H]2CCC[C@@H](C(=O)O)N2C1=O)[C@@H](S)Cc1ccccc1 [Comp. cpd. E-1, [4S-[4α,7α(R*),12bβ]]-7-[(1-oxo-2-(S)-thio-3-phenyl-propyl)amino]-1,2,3,4,6,7,8,12b-octahydro-6-oxopyrido-[2,1-a][2]benzazepine-4-carboxylic acid, reference compound] | 0.0135 |  |
| CC[C@H](C)[C@H](S)C(=O)NC1CCc2ccccc2N(CC(=O)O)C1=O (stereo partly drawn) [Example A-9, 1-Carboxymethyl-3-[(2S,3S)-2-mercapto-3-methylvarelylamino]-1H-[1]benzazepin-2-one] |  | 0.013 |
| CC[C@H](C)[C@H](S)C(=O)N[C@H]1CCc2ccccc2N(CC(=O)O)C1=O [Example A-11, (S)-3-[(2S,3S)-2-Mercapto-3-methylvarelylamino]-1-carboxymethyl-2,3,4,5-tetrahydro-1H-[1]benzazepin-2-one] |  | 0.0062 |
| CC[C@H](C)[C@H](S)C(=O)N[C@H]1CCC[C@H]2SC[C@@H](C(=O)O)N2C1=O [Example C-8, [3R-[3α,6α,(S*),9aβ]]-6-[[(2S,3S)-3-methyl-1-oxo-2-thiopentyl]amino]-octahydro-5-oxothiazol[3,2-a]-azepine-3-carboxylic acid] | 0.0092 |  |
| O=C(N[C@H]1CCC[C@H]2SC[C@@H](C(=O)O)N2C1=O)[C@@H](S)Cc1ccccc1 [Example F-17, [3R-[3α,6α(S*),9aβ]]-6-[[(S)-1-Oxo-2-thio-3-phenylpropyl]amino]-octahydro-5-oxothiazol[3,2-a]-azepine-3-carboxylic acid] | 0.0111 |  |
